Experimental data as given in patent US9296776B2, “Substituted nucleoside derivatives with antiviral and antimicrobial properties” (Eastern Virginia Medical School, priority 2007, dated 2016).
≈ marks a conversion by molar mass, not a printed value. Read-outs that look alike come from different tables or passages of the source. Values belong to the compound of their own block, whether it stands above or below them.

Assays:
[1] = Cytotoxicity (Tables 4, 6, 8)
[2] = test system: Multidrug resistant virus 7324-1; experiment: Antiviral activity against multidrug resistant HIV, RT endpoint; format: cell-based, HIV-1; settings: Table 2; MDR = 7324-1; RT endpoint; 6 h incubation then 6 days
[3] = test system: HIV-1 IIIB (cell-free virus); experiment: microbe, parasite or virus in culture; format: cell-based; settings: for EC50 Cell-free HIV-1 (IIIB) / EC50: Table 8; for EC50: read-out: EC50 Cell-free HIV-1 (IIIB); for IC50: Human immunodeficiency virus 1, IIIB, read-out: IC50 Cell-Free Virus IIIB
H. ducreyi Strain HMC56 = experiment: Antibacterial activity (MIC), strain HMC56; format: cell-based, Haemophilus ducreyi
H. ducreyi Strain HMC 64 = experiment: Antibacterial activity (MIC), strain HMC 64; format: cell-based, Haemophilus ducreyi
[4] = test system: Cell-associated HIV-1, SupT1 (IIIB); experiment: Single-round infection assay, cell-associated virus SupT1 (IIIB); format: cell-based; settings: for IC50: Human immunodeficiency virus 1, IIIB
[5] = test system: HIV-1 BaL (cell-free virus); experiment: Single-round infection assay, cell-free virus BaL; format: cell-based; settings: for IC50: Human immunodeficiency virus 1, BAL, read-out: IC50 Cell-Free Virus BaL
[6] = test system: HIV-1 clinical isolate R5 = 92TH014; experiment: Antiviral activity against HIV-1 clinical isolate R5, RT endpoint; format: cell-based; settings: Table 2, 6 h incubation then 6 days
H. ducreyi Strain HMC 62 = experiment: Antibacterial activity (MIC), strain HMC 62; format: cell-based, Haemophilus ducreyi
[7] = Table 1, 2 h incubation, wash, 48 h culture
[8] = 2 h incubation, wash, 48 h culture
[9] = SUP-T1, read-out: IC50 Cell-Associated Virus SupT1 (IIIB)
[10] = SUP-T1, Table 1, 2 h incubation, wash, 48 h culture, read-out: IC50 Cell-Associated Virus SupT1 (IIIB)

Structure (SMILES): CCCCCCCCCCCCCC(=O)NCCCC[C@H](NC(=O)CCNC(=O)[C@H](CCC(=O)OC[C@H]1O[C@@H](n2cc(C)c(=O)[nH]c2=O)C[C@@H]1F)NC(=O)CCCCCCCCCCCCC)C(=O)O [KPH-92, FLT(myristoylglutamyl)-mysritoyllysine]
- CC50 [1]: > 100 µg/mL

Structure (SMILES): CCSCCCCCCCCCCCC(=O)OC[C@H]1O[C@@H](n2cc(C)c(=O)[nH]c2=O)C[C@@H]1F [3′-fluoro-2′,3′-dideoxy-5′-O-(13-thiapentadecanoyl)thymidine]
- IC50 [2]: 0.002 µg/mL (≈ 0.00411 µM)
- IC50 Cell-Free Virus IIIB [3, 7]: 0.5 µg/mL (≈ 1.03 µM)
- MIC (minimum inhibitory concentration) (H. ducreyi Strain HMC56): 125 µg/mL (≈ 257 µM)
- MIC (minimum inhibitory concentration) (H. ducreyi Strain HMC 64): 125 µg/mL (≈ 257 µM)
- IC50 Cell-Associated Virus SupT1 (IIIB) [4, 7]: 1.1 µg/mL (≈ 2.26 µM)
- IC50 Cell-Free Virus BaL [5, 7]: <0.1 µg/mL
- IC50 [6]: 0.002 µg/mL (≈ 0.00411 µM)
- MIC (minimum inhibitory concentration) (H. ducreyi Strain HMC 62): 125 µg/mL (≈ 257 µM)

Structure (SMILES): CCCCCCCCCCCCCC(=O)OC[C@H]1O[C@@H](n2cc(C)c(=O)[nH]c2=O)C[C@@H]1F [3′-fluoro-2′,3′-dideoxy-5′-O-(tetradecanoyl)thymidine]
- IC50 [2]: 0.002 µg/mL (≈ 0.0044 µM)
- IC50 Cell-Free Virus IIIB [3, 7]: 0.3 µg/mL (≈ 0.66 µM)
- IC50 Cell-Associated Virus SupT1 (IIIB) [4, 7]: 2.9 µg/mL (≈ 6.38 µM)
- IC50 Cell-Free Virus BaL [5, 7]: 0.5 µg/mL (≈ 1.1 µM)
- IC50 [6]: 0.003 µg/mL (≈ 0.0066 µM)

Structure (SMILES): CCCCCCCCCCCCCC(=O)NCCCCC(NC(=O)CCNC(=O)C(CCC(=O)OC[C@H]1O[C@@H](n2cc(C)c(=O)[nH]c2=O)C[C@@H]1F)NC(C)=O)C(=O)O (stereo partly shown) [KPH-91, FLT(Glutamyl)-myrsitoyllysine]
- EC50 Cell-free HIV-1 (IIIB) [3, 8]: 8.7 µg/mL (≈ 10.5 µM)
- EC50 [3, 8]: 10.5 µM
- CC50 [1]: > 100 µg/mL

Structure (SMILES): Nc1ccn([C@@H]2CS[C@H](CO)O2)c(=O)n1 [2′,3′-dideoxy-3′-thiacytidine, reference compound]
- IC50 [3]: 7.5 µg/mL (≈ 32.7 µM)
- CC50 [1]: > 100 µg/mL
- IC50 [4, 9]: 18.4 µg/mL (≈ 80.3 µM)
- IC50 [5]: 2.6 µg/mL (≈ 11.3 µM)

Structure (SMILES): Cc1cn([C@H]2C[C@H](F)[C@@H](COC(=O)CCCCCCCCCCCN=[N+]=[N-])O2)c(=O)[nH]c1=O [3′-fluoro-2′,3′-dideoxy-5′-O-(12-azidododecanoyl)thymidine]
- IC50 [2]: 0.003 µg/mL (≈ 0.00642 µM)
- IC50 Cell-Free Virus IIIB [3, 7]: 0.4 µg/mL (≈ 0.856 µM)
- MIC (minimum inhibitory concentration) (H. ducreyi Strain HMC56): 500 µg/mL (≈ 1070 µM)
- MIC (minimum inhibitory concentration) (H. ducreyi Strain HMC 64): 125 µg/mL (≈ 267 µM)
- IC50 Cell-Associated Virus SupT1 (IIIB) [4, 7]: 5.9 µg/mL (≈ 12.6 µM)
- IC50 Cell-Free Virus BaL [5, 7]: 0.2 µg/mL (≈ 0.428 µM)
- IC50 [6]: 0.003 µg/mL (≈ 0.00642 µM)
- MIC (minimum inhibitory concentration) (H. ducreyi Strain HMC 62): 125 µg/mL (≈ 267 µM)

Structure (SMILES): Cc1cn([C@H]2C[C@H](N=[N+]=[N-])[C@@H](COC(=O)CCCCCCCCCCCBr)O2)c(=O)[nH]c1=O [3′-azido-2′,3′-dideoxy-5′-O-(12-bromododecanoyl)thymidine]
- IC50 Cell-Free Virus IIIB [3, 7]: 5.6 µg/mL (≈ 10.6 µM)
- IC50 Cell-Associated Virus SupT1 (IIIB) [4, 7]: >100 µg/mL
- IC50 Cell-Free Virus BaL [5, 7]: 2.6 µg/mL (≈ 4.92 µM)

Structure (SMILES): CCCCCSCCCCCCCC(=O)OC[C@H]1O[C@@H](n2cc(C)c(=O)[nH]c2=O)C[C@@H]1N=[N+]=[N-] [3′-azido-2′,3′-dideoxy-5′-O-(9-thiatertradecanoyl)thymidine]
- IC50 Cell-Free Virus IIIB [3, 7]: 3.7 µg/mL (≈ 7.47 µM)
- MIC (minimum inhibitory concentration) (H. ducreyi Strain HMC56): 250 µg/mL (≈ 504 µM)
- MIC (minimum inhibitory concentration) (H. ducreyi Strain HMC 64): 750 µg/mL (≈ 1510 µM)
- IC50 Cell-Associated Virus SupT1 (IIIB) [4, 7]: 42.0 µg/mL (≈ 84.7 µM)
- IC50 Cell-Free Virus BaL [5, 7]: 8.1 ( μg/mL
- MIC (minimum inhibitory concentration) (H. ducreyi Strain HMC 62): 250 µg/mL (≈ 504 µM)

Structure (SMILES): CCCCCCCCCCCCCC(=O)OCC(NC(C)=O)C(=O)NCCC(=O)NC(CCC(=O)OC[C@H]1O[C@@H](n2cc(C)c(=O)[nH]c2=O)C[C@@H]1N=[N+]=[N-])C(=O)NCC(=O)O (stereo partly shown) [KPH-95, Myristoylserine-AZT(glutamyl)glycine]
- EC50 Cell-free HIV-1 (IIIB) [3, 8]: 54.5 µg/mL (≈ 63.1 µM)
- EC50 [3, 8]: 63.1 µM
- CC50 [1]: > 100 µg/mL

Structure (SMILES): CCCCCCCCCCCCCC(=O)OCC(NC(C)=O)C(=O)NCCC(=O)NC(CCC(=O)OC[C@H]1O[C@@H](n2cc(C)c(=O)[nH]c2=O)C[C@@H]1F)C(=O)NCC(=O)O (stereo partly shown) [KPH-94, Myristoylserine-FLT(glutamyl)glycine]
- EC50 Cell-free HIV-1 (IIIB) [3, 8]: 9.3 µg/mL (≈ 11.1 µM)
- EC50 [3, 8]: 11.1 µM
- CC50 [1]: > 100 µg/mL

Structure (SMILES): Cc1cn([C@H]2C=C[C@@H](CO)O2)c(=O)[nH]c1=O [2′,3′-didehydro-2′,3′-dideoxythymidine, reference compound]
- IC50 [3]: 6 µg/mL (≈ 26.8 µM)
- IC50 [4, 9]: 30.5 µg/mL (≈ 136 µM)
- IC50 [5]: 6.3 µg/mL (≈ 28.1 µM)

Structure (SMILES): CCCCCCCCCCCCCCC(=O)OC[C@H]1O[C@@H](n2cc(C)c(=O)[nH]c2=O)C[C@@H]1N=[N+]=[N-] [3′-azido-2′,3′-dideoxy-5′-O-(pentadecanoyl)thymidine]
- IC50 Cell-Free Virus IIIB [3, 7]: 8.8 µg/mL (≈ 17.9 µM)
- IC50 Cell-Associated Virus SupT1 (IIIB) [4, 7]: >100 µg/mL
- IC50 Cell-Free Virus BaL [5, 7]: 2.2 µg/mL (≈ 4.47 µM)

Structure (SMILES): Cc1cn([C@H]2C[C@H](F)[C@@H](CO)O2)c(=O)[nH]c1=O [3′-fluoro-2′,3′-deoxythymidine (FLT), 3′-fluoro-2′,3′-deoxythymidine, reference compound]
- IC50 Cell-Free Virus IIIB [3, 7]: 0.2 µg/mL (≈ 0.819 µM)
- EC50 Cell-free HIV-1 (IIIB) [3, 8]: 0.2 µg/mL (≈ 0.819 µM)
- EC50 [3, 8]: 0.8 µM
- IC50 Cell-Associated Virus SupT1 (IIIB) [4, 7]: >100 µg/mL
- IC50 Cell-Free Virus BaL [5, 7]: 0.1 µg/mL (≈ 0.409 µM)

Other lines, results leading:

- IC50 [3, 7]: 0.056 µg/mL (≈ 0.122 µM)
- IC50 [4, 10]: 1.7 µg/mL (≈ 3.71 µM)
- IC50 [5, 7]: 0.033 µg/mL (≈ 0.0721 µM)
Structure (SMILES): CCCCCCCCCCCCCC(=O)OC[C@H]1O[C@@H](n2cc(F)c(N)nc2=O)CS1 [5′-O-tetradecanoyl-2′,3′-dideoxy-5-fluoro-3′-thiacytidine]

- IC50 [3, 7]: 1.1 µg/mL (≈ 2.33 µM)
- IC50 [4, 10]: > 100 µg/mL
- IC50 [5, 7]: < 0.1 µg/mL
Structure (SMILES): CCSCCCCCCCCCCCC(=O)OC[C@H]1O[C@@H](n2ccc(N)nc2=O)CS1 [5′-O-(13-thiapentadecanoyl)-2′,3′-dideoxy-3′-thiacytidine]

- IC50 [3, 7]: 0.88 µg/mL (≈ 1.94 µM)
- IC50 [4, 10]: > 100 µg/mL
- IC50 [5, 7]: 0.08 µg/mL (≈ 0.177 µM)
Structure (SMILES): [N-]=[N+]=NCCCCCCCCCCCC(=O)OC[C@H]1O[C@@H](n2ccc(N)nc2=O)CS1 [5′-O-(12-azidododecanoyl)-2′,3′-dideoxy-3′-thiacytidine]

- IC50 [3, 7]: 0.39 µg/mL (≈ 0.829 µM)
- IC50 [4, 10]: 4.3 µg/mL (≈ 9.14 µM)
- IC50 [5, 7]: 0.11 µg/mL (≈ 0.234 µM)
Structure (SMILES): [N-]=[N+]=NCCCCCCCCCCCC(=O)OC[C@H]1O[C@@H](n2cc(F)c(N)nc2=O)CS1 [5′-O-(12-azidododecanoyl)-2′,3′-dideoxy-5-fluoro-3′-thiacytidine]

- IC50 Cell-Free Virus IIIB [3, 7]: 3.0 µg/mL (≈ 6.7 µM)
- IC50 Cell-Associated Virus SupT1 (IIIB) [4, 7]: 10.0 µg/mL (≈ 22.3 µM)
- IC50 Cell-Free Virus BaL [5, 7]: 1.4 µg/mL (≈ 3.13 µM)
Structure (SMILES): Cc1cn([C@H]2C=C[C@@H](COC(=O)CCCCCCCCCCCN=[N+]=[N-])O2)c(=O)[nH]c1=O [5′-O-(12-azidodecanoyl)-2′,3′-didehydro-2′,3′-dideoxythymidine]

- IC50 Cell-Free Virus IIIB [3, 7]: 0.5 µg/mL (≈ 1.03 µM)
- IC50 Cell-Associated Virus SupT1 (IIIB) [4, 7]: >100 µg/mL
- IC50 Cell-Free Virus BaL [5, 7]: 0.1 µg/mL (≈ 0.206 µM)
Structure (SMILES): CCCCCCCCCCCCC(OC)C(=O)OC[C@H]1O[C@@H](n2cc(C)c(=O)[nH]c2=O)C[C@@H]1F (stereo partly shown) [3′-fluoro-2′,3′-dideoxy-5′-O-(2-methoxytetradecanoyl)thymidine]

- IC50 [3, 7]: 4.8 µg/mL (≈ 10.9 µM)
- IC50 [4, 10]: 0.3 µg/mL (≈ 0.682 µM)
- IC50 [5, 7]: 0.3 µg/mL (≈ 0.682 µM)
Structure (SMILES): CCCCCCCCCCCCCC(=O)Nc1ccn([C@H]2CS[C@@H](CO)O2)c(=O)n1 [N4-tetradecanoyl-2′,3′-dideoxy-3′-thiacytidine]

- IC50 Cell-Free Virus IIIB [3, 7]: 6.7 µg/mL (≈ 13.2 µM)
- IC50 Cell-Associated Virus SupT1 (IIIB) [4, 7]: 21.7 µg/mL (≈ 42.7 µM)
- IC50 Cell-Free Virus BaL [5, 7]: 2.7 µg/mL (≈ 5.32 µM)
Structure (SMILES): Cc1cn(C2C=CC(COC(=O)CCCCCCCCCCCSCCN=[N+]=[N-])O2)c(=O)[nH]c1=O (stereo not shown) [5′-O-(12-thioethylazidodecanoyl)-2′,3′-didehydro-2′,3′-dideoxythymidine]

- IC50 Cell-Free Virus IIIB [3, 7]: 13.3 µg/mL (≈ 29.4 µM)
- IC50 Cell-Associated Virus SupT1 (IIIB) [4, 7]: 6.6 µg/mL (≈ 14.6 µM)
- IC50 Cell-Free Virus BaL [5, 7]: 1.7 µg/mL (≈ 3.76 µM)
Structure (SMILES): [N-]=[N+]=NCCCCCCCCCCCC(=O)Nc1ccn([C@H]2CS[C@@H](CO)O2)c(=O)n1 [N4-(12-azidodecanoyl)-2′,3′-dideoxy-3′-thiacytidine]
